Values after ≈ are worked out from the molar mass of the structure shown.
Assays:
Assay type in all cases: functional
[1] = system: Mycobacterium tuberculosis; assay: Antibacterial activity against isonizaid/rifampicin-resistant Mycobacterium tuberculosis isolate FJ05120 after 18 hrs by agar dilution method; settings: isolate FJ05120, 18 h
[2] = system: Mycobacterium tuberculosis; assay: Antibacterial activity against isonizaid/rifampicin/streptomycin/ethambutol-resistant Mycobacterium tuberculosis isolate FJ05436 after 18 hrs by agar dilution method; settings: isolate FJ05436, 18 h
[3] = system: Mycobacterium tuberculosis; assay: Antibacterial activity against isonizaid/rifampicin/streptomycin/ethambutol-resistant Mycobacterium tuberculosis isolate FJ05195 after 18 hrs by agar dilution method; settings: isolate FJ05195, 18 h

Row | Compound | MIC [1] | MIC [2] | MIC [3]
1 | CNC(=N)NCCC/C=C/CCC[C@H](C)C[C@H](C)[C@H]1OC(=O)[C@H](C)[C@H](O)/C=C/[C@H](C)[C@H](O)C[C@H](O)[C@H](C)[C@@H](O)CC[C@H](C)[C@H](O)C[C@]2(O)O[C@H](C[C@@H](OC(=O)CC(=O)O)C[C@H](O)C[C@@H](O)[C@H](C)[C@H](O)/C=C/C=C/[C@@H]1C)C[C@H](O)[C@H]2O | 4 to 16 µg/mL (≈ 3.5 to 14 µM) | 4 to 32 µg/mL (≈ 3.5 to 28 µM) | 4 to 32 µg/mL (≈ 3.5 to 28 µM)
2 | CNC(=N)NCCC/C=C/CCC[C@H](C)C[C@H](C)[C@H]1OC(=O)[C@H](C)[C@H](O)/C=C/[C@H](C)[C@H](O)C[C@H](O)[C@H](C)[C@@H](O)CC[C@H](C)[C@H](O)C[C@]2(O)O[C@H](C[C@@H](O)C[C@H](OC(=O)CC(=O)O)C[C@@H](O)[C@H](C)[C@H](O)/C=C/C=C/[C@@H]1C)C[C@H](O)[C@H]2O | 4 to 16 µg/mL (≈ 3.5 to 14 µM) | 4 to 32 µg/mL (≈ 3.5 to 28 µM) | 4 to 32 µg/mL (≈ 3.5 to 28 µM)
